Experimental data published in the Deep4Chem optical property database.
Values belong to the molecule of their own block, whether it stands above or below them.

Assay: solvent given as SMILES

SMILES: F[B-]1(F)n2c(-c3cccs3)cc(-c3cccs3)c2N=C2C(c3cccs3)=CC(c3cccs3)=[N+]21
emission maximum (in C1CCOC1): 763 nm | emission maximum (in CC#N): 757 nm | emission maximum (in CS(C)=O): 775 nm | emission maximum (in Cc1ccccc1): 765 nm | emission maximum (in ClCCl): 764 nm

SMILES: CCN1C(=CC=Cc2n(CC)c3cc(Cl)c(Cl)cc3[n+]2CC)N(CC)c2cc(Cl)c(Cl)cc21
emission maximum (in CC#N): 529 nm | emission maximum (in CCCCCCO): 535 nm | emission maximum (in CCCCO): 534 nm | emission maximum (in CCCO): 532 nm | emission maximum (in CCO): 530 nm | emission maximum (in CO): 528 nm | emission maximum (in CS(C)=O): 536 nm | emission maximum (in OCC(O)CO): 535 nm | emission maximum (in OCCO): 532 nm

SMILES: O=C1c2cccc3c(NCc4ccccn4)c4ccccc4c(c23)C(=O)N1Cc1ccccn1
emission maximum (in C1CCOC1): 609 nm | emission maximum (in CCCCCC): 594 nm | emission maximum (in CCO): 615 nm | emission maximum (in Cc1ccccc1): 606 nm | emission maximum (in ClCCl): 611 nm

SMILES: COC(=O)/C(C#N)=c1/cc/c(=c2/cc/c(=C(\C#N)C(=O)OC)s2)s1
emission maximum (in Cc1ccccc1): 601 nm

SMILES: CC(C)[Si](C#Cc1ccc2c(C#C[Si](C(C)C)(C(C)C)C(C)C)cc3c4cc(C#C[Si](C(C)C)(C(C)C)C(C)C)ccc4c(C#C[Si](C(C)C)(C(C)C)C(C)C)cc3c2c1)(C(C)C)C(C)C
emission maximum (in ClCCl): 408 nm

SMILES: CCN(CC)c1cc2oc3cc(N(CC)CC)c(F)cc3c(=O)c2cc1F
emission maximum (in CCO): 452 nm

SMILES: CCCC1=Cc2nc1ccc1[nH]c(cc1CCC)c1nc(c(OCc3ccc(C(=O)O)cc3)cc3[nH]c2cc3CCC)C(CCC)=C1
emission maximum (in Cc1ccccc1): 685 nm

SMILES: O=C1c2ccc(-c3ccc(N(c4ccc(-c5ccccc5)cc4)c4ccc(-c5ccccc5)cc4)cc3)cc2C(=O)c2ccc(-c3ccc(N(c4ccc(-c5ccccc5)cc4)c4ccc(-c5ccccc5)cc4)cc3)cc21
emission maximum (in Cc1ccccc1): 608 nm | emission maximum (in c1ccc2c(c1)c1ccccc1n2-c1ccc(-c2ccc(-n3c4ccccc4c4ccccc43)cc2)cc1): 601 nm

SMILES: COc1ccc(-c2nnc(-c3cc(-c4nnc(-c5ccc(OC)cc5)o4)c(-n4c5ccccc5c5ccccc54)cc3-n3c4ccccc4c4ccccc43)o2)cc1
emission maximum (in Cc1ccccc1): 428 nm | emission maximum (in O=P(c1ccccc1)(c1ccccc1)c1ccccc1Oc1ccccc1P(=O)(c1ccccc1)c1ccccc1): 452 nm

Continued, values first:

emission maximum (in CO): 414.5 nm
SMILES: O=C(O)c1ccc(-c2nc(-c3ccccc3)c(-c3ccccc3)[nH]2)cc1

emission maximum (in CC#N): 476 nm | emission maximum (in CO): 490 nm | emission maximum (in ClCCl): 474 nm
SMILES: CCOC(=O)c1ccc(O)c(-c2[nH]c(=O)n3c2-c2ccccc2C3=O)c1

emission maximum (in ClC(Cl)Cl): 402 nm
SMILES: CCCCn1c2ccccc2c2ccc3c4cc(-c5ccc(C(F)(F)F)cc5)ccc4n(CCCC)c3c21

emission maximum (in O): 535 nm
SMILES: NNC(=O)N1C(=O)c2cc(S(=O)(=O)[O-])cc3c(N)c(S(=O)(=O)[O-])cc(c23)C1=O

emission maximum (in C1CCOC1): 474 nm
SMILES: N#Cc1c(N2CCCCC2)cc(-c2cccs2)c2c1CCc1ccccc1-2

emission maximum (in CC#N): 491 nm
SMILES: F[B-]1(F)OC(c2ccc3c(c2)Cc2ccccc2-3)=CC(c2ccccc2)=[O+]1

emission maximum (in ClCCl): 424 nm
SMILES: C[Si]1(C)c2ccc(-c3ccc(-c4cccs4)s3)cc2C=Cc2cc(-c3ccc(-c4cccs4)s3)ccc21

emission maximum (in ClC(Cl)Cl): 661 nm
SMILES: F[B-]1(F)n2c(cc3oc(-c4ccccc4)cc32)C=C2C=c3oc(-c4ccccc4)cc3=[N+]21

emission maximum (in CC#N): 480 nm | emission maximum (in CO): 496 nm | emission maximum (in ClCCl): 473 nm
SMILES: Cc1cccc(-c2[nH]c(=O)n3c2-c2ccccc2C3=O)c1O

emission maximum (in CC#N): 418 nm | emission maximum (in CCCCCC): 389 nm | emission maximum (in CCO): 415 nm | emission maximum (in CN(C)C=O): 418 nm | emission maximum (in CO): 416 nm | emission maximum (in ClC(Cl)Cl): 406 nm
SMILES: COc1ccc(-n2nc(C#N)c(N3CCCC3)n2)cc1

emission maximum (in ClCCl): 735 nm
SMILES: CCN(CC)c1ccc2c(-c3ccccc3C(=O)O)c3c([o+]c2c1)/C(=C/c1nc(C)n2ccccc12)CCC3

emission maximum (in ClCCl): 419 nm | emission maximum (in c1cc(-n2c3ccccc3c3ccccc32)cc(-n2c3ccccc3c3ccccc32)c1): 407 nm
SMILES: c1ccc(N(c2ccccc2)c2ccc(-c3ccc4c(c3)C3(c5cc(-c6ccc(N(c7ccccc7)c7ccccc7)cc6)ccc5O4)c4ccccc4-c4ccccc43)cc2)cc1
